Experimental data published in article PMC2192356 (The Journal of Experimental Medicine, 1996).
Where a SMILES comes first, the peptide text is derived from it. Where no end group is shown, it is not given here. The star is where a group is joined. Biotin = O=C1N[C@H]2[C@H](CS[C@H]2CCCCC(=O)*)N1

Experiments:
IAd [1] = type: binding, murine; details: pH 5
IAk [2] = molecular target: T1, IAk (Mus musculus, UniProt P01910+P06343); type: binding, murine; details: pH 5
IEk [3] = type: binding, murine; details: pH 5
IEk [4] = type: binding, murine; details: pH 5; remark: listed apart in the source
[5] = tested on: 3DO-54.8 T cells with CH27 APC; type: cell-based
IAk [6] = molecular target: T1, IAk; type: binding, murine; details: pH 7
[7] = molecular target: IAk (mouse (endogenous in CH27 B lymphoma)); test: ELISA
class II proteins = type: binding
IAd [8] = type: binding, murine; details: pH 5; remark: listed apart in the source
IEk [9] = type: binding, murine; details: pH 5; remark: listed apart in the source
IAk [10] = molecular target: T1, IAk; type: binding, murine; details: pH 5; remark: listed apart in the source
IAb = type: binding, murine
IEd = type: binding, murine; details: pH 5
DR1 [11] = molecular target: T2, DR1 (Homo sapiens, UniProt P01903+P01911, A100R/D57E/F55L/F60I/F76Y/I96L/L162R/M171V/P40L/Q125E/R42F/V115G/Y59C); type: binding; details: pH 7
IAk [12] = molecular target: T1, IAk; type: binding, murine; details: pH 5; remark: listed apart in the source
DR1 [13] = molecular target: T2, DR1; type: binding; details: pH 5
DR1 [14] = molecular target: T2, DR1; type: binding; details: pH 7; remark: listed apart in the source
[15] = molecular target: DR1 (human (endogenous in LG2)) (UniProt P01903); test: ELISA

biotin-SEB, sequence (P01552 28-266): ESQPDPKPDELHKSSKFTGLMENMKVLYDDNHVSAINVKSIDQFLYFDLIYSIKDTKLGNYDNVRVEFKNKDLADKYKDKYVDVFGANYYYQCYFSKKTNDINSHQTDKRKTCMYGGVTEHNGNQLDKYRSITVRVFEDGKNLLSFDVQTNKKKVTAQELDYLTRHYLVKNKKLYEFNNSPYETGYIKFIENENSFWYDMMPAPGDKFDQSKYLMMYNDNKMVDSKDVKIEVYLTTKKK

Molecule: FVNQHLCGSHLVEALYLVCGER [B(1-22)]
- inhibition of the binding of biotin-B(10-30) (IAd [1]): inhibits
- inhibition of the binding of biotin-B(10-30) (IAk [2]): inhibits
- inhibition of the binding of biotin-B(10-30) (IEk [3]): inhibits

Molecule: RADLIAYLKQATAK [pCc(91-104), reference compound]
- inhibition of the binding of allele-specific antigenic peptides (IEk [4]): inhibit

Molecule: NTDGSTDYGILQINSR [HEL(46-61), reference compound]
- inhibition of the response of 3DO-54.8 to SEB (IL-2) [5]: did not
- affinity for the groove of IEk relative to pCc(91-104), logs lower (IEk [4]): at least 3 logs
- inhibition of the binding of biotin-SEB to IAk (IAk [6]): No inhibition

Molecule: Intact insulin [reference compound]
- inhibition of the binding of biotin-B(10-30) (IAd [1]): does not inhibit
- inhibition of the binding of biotin-B(10-30) (IAk [2]): does not inhibit
- inhibition of the binding of biotin-B(10-30) (IEk [3]): does not inhibit

Molecule: biotin-SEB (from UniProt P01552 28-266) (natural protein)
- Kd [7]: 0.062 µM

Molecule: Myo(106-118): IAd-binding peptide (FISEAIIHVLHSR) [reference compound]
- inhibition of biotin-B(10-30) binding to class II (class II proteins): inhibits

Molecule: HLVEALYLVCGERGFFYTPKA [B(10-30)]
- inhibition of the response of 3DO-54.8 to SEB (IL-2) [5]: inhibited
- specific binding to class II protein (IAd [8]): binds
- effect on stimulation by anti-CD3 mAb (T cell toxicity) (3DO-54.8 T cells): not altered
- affinity for the groove of IEk relative to pCc(91-104), logs lower (IEk [4]): at least 3 logs
- inhibition of the binding of allele-specific antigenic peptides (IEk [4]): only weakly inhibited
- specific binding to class II protein (IEk [9]): binds
- inhibition of the binding of biotin-B(10-30) (IAd [1]): inhibit
- specific binding to class II protein (IAk [10]): binds
- specific binding to class II protein (IAb): binds
- specific binding to class II protein (IEd): binds
- affinity for DR1 relative to HA(306-318), logs lower (DR1 [11]): ~ 3 logs
- inhibition of the binding of allele-specific antigenic peptides (DR1 [11]): only weakly inhibited
- dissociation rate from class II (class II proteins): relatively rapid
- pH dependence of binding to murine class II proteins (class II proteins): not enhanced
- time to approach saturation / plateau of binding to class II (class II proteins): 1 to 2 h
- inhibition of the binding of biotin-B(10-30) (IAk [2]): inhibit
- inhibition of the binding of allele-specific antigenic peptides (IAk [12]): only weakly inhibited
- specific binding to class II protein (DR1 [13]): binds
- inhibition of the binding of biotin-B(10-30) (IEk [3]): inhibit
- inhibition of the binding of biotin-SEB to IAk (IAk [6]): inhibited
- peptide concentration giving complete inhibition of SEB binding to IAk (IAk [6]): 4

Molecule: MAT(17-31): DR1-binding antigenic peptide defined by specific T cells (SGPLKAEIAQRLEDV)
- inhibition of the binding of biotin-B(10-30) to DR1 (DR1 [14]): 25- 50%

Molecule: CC(C)C[C@H](NC(=O)[C@H](C)NC(=O)[C@H](CCC(=O)O)NC(=O)[C@@H](NC(=O)[C@H](CC(C)C)NC(=O)[C@H](Cc1c[nH]cn1)NC(=O)CCCC[C@@H]1SC[C@@H]2NC(=O)N[C@@H]21)C(C)C)C(=O)N[C@@H](Cc1ccc(O)cc1)C(=O)N[C@@H](CC(C)C)C(=O)N[C@H](C(=O)N[C@@H](CS)C(=O)NCC(=O)N[C@@H](CCC(=O)O)C(=O)N[C@@H](CCCNC(=N)N)C(=O)NCC(=O)N[C@@H](Cc1ccccc1)C(=O)N[C@@H](Cc1ccccc1)C(=O)N[C@@H](Cc1ccc(O)cc1)C(=O)N[C@H](C(=O)N1CCC[C@H]1C(=O)N[C@@H](CCCCNC(=O)CCCC[C@@H]1SC[C@@H]2NC(=O)N[C@@H]21)C(=O)N[C@@H](C)C(=O)O)[C@@H](C)O)C(C)C [biotin-B(10-30)] (Biotin-HLVEALYLVCGERGFFYTPK(Biotin)A-OH; N-terminus and C-terminus assumed)
- time to saturate the alternative binding site of IAk (IAk [10]): ≤ 1 h

Molecule: HLVEALYLVCGERGFFYTPKA (not fully specified (N-terminus); also: biotin (site not given here)) [biotin-B(10-30)]
- Kd [15]: 0.62 µM
